The molecules below were run on rat small-intestinal brush border membrane vesicles (assay: Inhibitory effect on 33PO4 uptake into rat small-intestinal brush border membrane vesicles (rapid filtration method)). Conditions: 33PO4 uptake into rat small-intestinal BBMVs; test compound 1 µM; reacted for 60 seconds.
Format: biochemical
Procedure, shortened: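 Uptake of ^33PO4 was measured by rapid filtration and liquid scintillation counting of filter-retained vesicles, after quenching with ice-cold 110 mM NaCl/1 mM KH2PO4/10 mM HEPES pH 7.5. Vesicles were brush border membranes from the upper small intestine of female Wistar rats aged 4–5 weeks.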
With `CN1N(Cc2ccc(OCCN3CCOC(=O)C3)c(F)c2F)C(=O)C(C(=O)Nc2ccc(C(F)(F)F)cc2-c2cc(C(F)(F)F)ncn2)=C(O)C12CCC2` [Example 337, 8-[[2,3-Difluoro-4-[2-(2-oxomorpholin-4-yl)ethoxy]phenyl]methyl]-5-hydroxy-9-methyl-7-oxo-N-[4-(trifluoromethyl)-2-[6-(trifluoromethyl)pyrimidin-4-yl]phenyl)-8.9-diazaspiro [3. 5]non-5-ene-6-carboxamide] the “Rate of uptake inhibition (%) (1 µM)” value was 47%.
In the case of `C[C@]12CCCN1N(Cc1cccc(Cl)c1)C(=O)C(C(=O)Nc1cc(F)c(Br)c(F)c1)=C2O` [Example 221], the “Rate of uptake inhibition (%) (1 µM)” value was 82%.
For `CN1N(Cc2cccc(F)c2F)C(=O)C(C(=O)Nc2ccc(C(F)(F)F)nc2-c2cncc(C(F)(F)F)c2)=C(O)C1(C)C` [Example 306], the “Rate of uptake inhibition (%) (1 µM)” value was 58%.
In the case of `Cc1cc(NC(=O)C2=C(O)[C@@H]3CCC(C)(C)N3N(Cc3cccc(F)c3)C2=O)c(C(F)(F)F)o1` [Example 4, (4aS)-1-[(3-Fluorophenyl)methyl]-4-hydroxy-7,7-dimethyl-N-[5-methyl-2-(trifluoromethyl)furan-3-yl]-2-oxo-5.6-dihydro-4aH-pyrrolo[1,2-b]pyridazine-3-carboxamide], the “Rate of uptake inhibition (%) (1 µM)” value was 32%.
`Cc1c(Cl)ncnc1-c1cc(Cl)ccc1NC(=O)C1=C(O)[C@H](C(C)(C)C)N(C)N(Cc2ccc(OCCN3CCOCC3)c(F)c2F)C1=O` [Example 275] was tested, and the “Rate of uptake inhibition (%) (1 µM)” value was 42%.
In the case of `C[C@]12CCCN1N(Cc1ccc(C#CCCCCC(=O)O)c(F)c1F)C(=O)C(C(=O)Nc1ccc(C(F)(F)F)cc1-c1cncc(C(F)(F)F)c1)=C2O` [Example 119, 7-[4-[[(4aR)-4-Hydroxy-4a-methyl-2-oxo-3-[[4-(trifluoromethyl)-2-[5-(trifluoromethyl)pyridin-3-yl]phenyl]carbamoyl]-6.7-dihydro-5H-pyrrolo[1,2-b]pyridazin-1-yl]methyl]-2.3-difluorophenyl]hept-6-ynoate], the “Rate of uptake inhibition (%) (1 µM)” value was 71%.
For `C[C@]12CCCN1N(Cc1cc(F)ccc1F)C(=O)C(C(=O)Nc1ccc(C(F)(F)F)cc1-c1ccc(C(F)(F)F)nc1)=C2O` [Example 172], the “Rate of uptake inhibition (%) (1 µM)” value was 72%.
In the case of “(4aS)-1-[(3-Fluorophenyl)methyl]-4-hydroxy-4a-methyl-N-[5-methyl-2-(trifluoromethyl)furan-3-yl]-2-oxo-6,7-dihydro-5H-pyrrolo[1,2-b]pyridazine-3-carboxamide [Example 8]”, the “Rate of uptake inhibition (%) (1 µM)” value was 37%.
With `C[C@]12CCCN1N(Cc1c(F)cc(C#CCCCCCOC[C@H](O)[C@@H](O)CO)cc1F)C(=O)C(C(=O)Nc1ccc(C(F)(F)F)cc1-c1ccc(C(F)(F)F)nc1)=C2O` [Example 124] the “Rate of uptake inhibition (%) (1 µM)” value was 81%.
`CN1N(Cc2cccc(F)c2F)C(=O)C(C(=O)Nc2ccc(Cl)cc2-c2ccc(C(F)(F)F)nc2)=C(O)C1(C)C` [Example 309] was tested, and the “Rate of uptake inhibition (%) (1 µM)” value was 68%.
With `CN(CCOCCOc1ccc(CN2C(=O)C(C(=O)Nc3ccc(C(F)(F)F)cc3-c3cc(C(F)(F)F)ncn3)=C(O)C3(CCCC3)N2C)c(F)c1F)C[C@H](O)[C@@H](O)[C@H](O)[C@H](O)CO` [Example 420, 7-[[2,3-Difluoro-4-[2-[2-[methyl-[(2S,3R,4R,5R)-2,3,4,5,6-pentahydroxyhexyl]amino]ethoxy]ethoxy]phenyl]methyl]-10-hydroxy-6-methyl-8-oxo-N-[4-(trifluoromethyl)-2-[6-(trifluoromethyl)pyrimidin-4-yl]phenyl]-6,7-diazaspiro[4.5]dec-9-ene-9-carboxamide] the “Rate of uptake inhibition (%) (1 µM)” value was 19%.
`C[C@]12CCCN1N(Cc1cc(F)cc(F)c1)C(=O)C(C(=O)Nc1ccc(C(F)(F)F)cc1-c1ccc(C(F)(F)F)nc1)=C2O` [Example 171] was tested, and the “Rate of uptake inhibition (%) (1 µM)” value was 78%.
For `CN1N(Cc2ccc(OCCCOC[C@H](O)CO)c(F)c2F)C(=O)C(C(=O)Nc2ccc(C(F)(F)F)cc2-c2cc(C(F)(F)F)ncn2)=C(O)C12CCC2` [Example 389], the “Rate of uptake inhibition (%) (1 µM)” value was 29%.
